Test results as given in US6627732B1, “Glutathione derivatives and their dosage forms” (Teijin Limited, priority 1998, dated 2003).

Experiments:
Assay type in all cases: in vivo
[1] = system: rat models of suppressed hematopoietic function by 5-FU administration; assay: Ratio of segmented neutrophils in rat models of suppressed hematopoietic function by 5-FU (Example 27); conditions: 5-FU rats; 30 mg/kg-body weight/day with fat emulsion
Procedure: (1) The animals used are the same as in Example 26. The keeping condition was a temperature of 23±2° C. and a humidity of 55±15%.
(2) The creation of the 5-FU administration model, the administration of test substances, and the blood collection schedule were carried out in a similar manner to Example 26. Hematological tests were carried out using the Toa multi-channel automatic cell counter K-4500 or Toa Sysmex CC-180A automatic cell counter, differential counts of white blood cells were carried out by May-Giemsa stain followed by microscopic examination, reticulocytes were counted by the Brecher method.
(3) Using the same schedule as in Example 26, the negative control group that only received the fat emulsion after 5-FU administration, the group that received the glutathione derivative of Example 4 at 30 mg/kg-body weight/day as a test substance together with the fat emulsion, the group that similarly received the glutathione derivative of Example 1 at 10 or 30 mg/kg-body weight/day, and the group that received the glutathione derivative of Example 7 at 30 or 60 mg/kg-body weight/day were studied.

[2] = system: rabbit models of suppressed hematopoietic function by CP administration; assay: Recovery of neutrophil counts in rabbit models of suppressed hematopoietic function by cyclophosphamide (Example 29); conditions: CP rabbits; 20 mg/kg-body weight/day, days 3 to 7; Example 4 in fat emulsion, Comparative Example 1 in HPCD solution
Excerpt: Regarding the effect of promoting the recovery of neutrophil counts in rabbit models of suppressed hematopoietic function by cyclophosphamide (hereinafter referred to as CP) administration, the pharmaceutical composition comprising the fat emulsion containing the glutathione derivative of Example 4 of the present invention and the pharmaceutical composition of the conventional technology of Comparative Example 1 were compared.
(§1) (1) Animals used and the keeping condition: Male Japanese white rabbits, 17-week old, (Kbl:JW) purchased from Kitayama Labes Co., Ltd. were used. The animal feed (LRC4, manufactured by Oriental Yeast Co., Ltd.) and drinking water (well water treated with 0.4±0.2 ppm hypochlorous acid) were given ad libitum during the period of the experiment. The animals were each housed in a hanging-type rat cage (manufactured by Nippon Cage K.K.) and kept at a temperature of 24±2° C. and a humidity of 55±5%.
(2) Creation of rabbit models of suppressed hematopoietic function by CP administration; CP (manufactured by Wako Pure Chemicals Industries, Ltd.) was intravenously administered at 60 mg/kg-body weight/day (dosage volume was 2 ml/kg-body weight) to rabbits described in (1) on day 1 and 2 of the experiment. […] Blood was also drawn before the administration on day 1 of the experiment, and the value determined for the blood was used as the pre-administration value. […]

[3] = system: rat models of suppressed hematopoietic function by 5-FU administration; assay: Recovery of neutrophil counts in rat models of suppressed hematopoietic function by 5-FU (Example 26); conditions: 5-FU rats, days 2-10
Excerpt: Regarding the effect of promoting the recovery of neutrophil counts in rat models of suppressed hematopoietic function by 5-fuluorouracil administration, statistical significance was compared to the control group to compare the pharmaceutical composition containing Example 4 of the present invention as an active ingredient with the pharmaceutical composition of the conventional technology of Comparative Example 1 and granulocyte colony-stimulating factor (G-CSF).
as §1, with “SD rats, 6-week” for “Japanese white rabbits, 17-week”, “old,” for “old, (Kbl:JW)”, “Nippon SLC” for “Kitayama Labes Co., Ltd.”, “(manufactured” for “(LRC4, manufactured”, “were” for “were each”
(2) Creation of rat models of suppressed hematopoietic function by 5-FU administration; Creation of rat models of suppressed hematopoietic function by 5-FU (Kyowa Hakko Kogyo Co. Ltd.) administration was carried out based on the method of Akamatsu et al. (Yakuri to Chiryo(Pharmacology and Therapy), 18. (Suppl. 9), 317-356 (1990)). Thus, on the first day of the experiment, 5-FU at 50 mg/kg-body weight (dosage volume is 1 ml/kg-body weight) or the same amount of physiological saline (manufactured by Fuso Pharmaceuticals Industries, Ltd.) was intraperitoneally administered to the rats described in (1). On days 4, and 7-12, blood was drawn from the jugular vein and the EDTA-2K-treated blood was obtained. The blood was used to determine the neutrophil count using a general chemistry test instrument (Technicon H-1E, manufactured by Bayer-Sankyo K.K.) and the ratio of reticulocytes using a reticulocyte determination instrument (EPICS, XL-MCL, manufactured by Coulter K.K.). Blood was also drawn on day 1 of the experiment, and the values determined for the blood were used as the pre-administration values.
In the physiological saline administration group, no changes in neutrophil count were observed throughout the experiment period, whereas in the 5-FU administration group there was a reduction in neutrophil count with the lowest value observed on day 8 of the experiment, and the neutrophil count was recovered to the value before 5-FU administration or higher on day 10 of the experiment or after. The above results confirmed that rat models of suppressed hematopoietic function can be created by a single intraperitoneal administration of 5-FU at 50 mg/kg-body weight.
(3) Evaluation of Example 4 and Comparative Example 1 in the above model; To the model described in (2), the glutathione derivative of Example 4 combined with the fat emulsion at 10 to 30 mg/kg-body weight/day or the glutathione derivative of Comparative Example 1 dissolved in a physiological saline containing 2.5% hydroxypropyl-β-cyclodextrin at 50 mg/kg-body weight/day was repeatedly administered into the tail vein for 9 days from day 2 to 10 of the experiment. The recombinant human G-CSF formulation (hereinafter referred to as G-CSF, manufactured by Chugai Pharmaceutical Co., Ltd.) as the positive control at 10 μg/kg-body weight/day and the empty fat emulsion as the negative control were administered in a similar manner. […]

| SMILES | Recovery of segmented neutrophil counts relative to the negative control [1] | Neutrophil counts compared to the negative control group [2] | Neutrophil counts relative to the negative control group ([3]; fat emulsion 10 mg/kg-body weight/day iv) | Neutrophil counts relative to the negative control group ([3]; fat emulsion 20 mg/kg-body weight/day iv, days 9 to 11, significance 1% to 0.1%) | Neutrophil counts relative to the negative control group ([3]; fat emulsion 30 mg/kg-body weight/day iv, from day 8, significance 5%-0.1%) | Neutrophil counts relative to the negative control group ([3]; HPCD solution 50 mg/kg-body weight/day iv, significant (5%) on day 12 only) |
| --- | --- | --- | --- | --- | --- | --- |
| CCCCCCCCCCCCCCCCOC(=O)[C@@H](N)CCC(=O)N[C@@H](CSCc1ccccc1)C(=O)N[C@@H](C(=O)OCC)c1ccccc1.Cl [Example 4, Glu(Cys(Bzl)-D-Phg-OEt)-O(Hexadecyl)hydrochloride] | tendency of promoting the recovery of segmented neutrophil counts | statistically significant increase in neutrophil counts | No changes were observed | statistically significant increase | statistically significant increase |  |
| CCOC(=O)[C@@H](N)CCC(=O)N[C@@H](CSCc1ccccc1)C(=O)N[C@@H](C(=O)OCC)c1ccccc1.Cl [Comparative Example 1, Glu(Cys(Bzl)-D-Phg-O(Et))-O(Et)hydrochloride, reference compound] |  | no changes were observed |  |  |  | no changes were observed compared to the negative control group |
